Calls of active or inactive are those of the source. How the calls were made is not given here.
Test system: rodent carcinogenicity bioassays, tumor incidence
Assay: CCRIS carcinogenicity studies
Outline: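 Archive of carcinogenicity, mutagenicity, tumor promotion and tumor inhibition results drawn from journals, NCI reports and other sources, expert-reviewed; covers 1985-2011 and is no longer updated.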

CC/C(C)=N\O
carcinogen call (Species: MOUSE, Strain/Sex: CD-1/FEMALE, Route: INHALATION, Dose: 0, 15, 75, 374 PPM 6 HR/D 5 D/WK FOR 26 MO (STUDY DURATION: 26 MO), Dose: 0, 15, 75, 374 PPM 6 HR/D 5 D/WK FOR 26 MO (STUDY DURATION: 26 MO)): inactive; negative | carcinogen call (Species: MOUSE, Strain/Sex: CD-1/MALE, Route: INHALATION, Dose: 0, 15, 75, 374 PPM 6 HR/D 5 D/WK FOR 26 MO (STUDY DURATION: 26 MO), Dose: 0, 15, 75, 374 PPM 6 HR/D 5 D/WK FOR 26 MO (STUDY DURATION: 26 MO), Tumor Site: Type of Lesion: LIVER: CARCINOMA, ADENOMA OR CARCINOMA): active; positive | carcinogen call (Species: RAT, Strain/Sex: F344/FEMALE, Route: INHALATION, Dose: 0, 15, 75, 374 PPM 6 HR/D 5 D/WK FOR 26 MO (STUDY DURATION: 26 MO), Dose: 0, 15, 75, 374 PPM 6 HR/D 5 D/WK FOR 26 MO (STUDY DURATION: 26 MO)): inactive; negative | carcinogen call (Species: RAT, Strain/Sex: F344/MALE, Route: INHALATION, Dose: 0, 15, 75, 374 PPM 6 HR/D 5 D/WK FOR 26 MO (STUDY DURATION: 26 MO), Dose: 0, 15, 75, 374 PPM 6 HR/D 5 D/WK FOR 26 MO (STUDY DURATION: 26 MO), Tumor Site: Type of Lesion: LIVER: ADENOMA, CARCINOMA, ADENOMA OR CARCINOMA): active; positive

C=CCN(N)CC=C
carcinogen call (Species: MOUSE, Strain/Sex: SWISS/FEMALE, Route: ORAL, Dose: 0.03125% IN DRINKING WATER FOR LIFE, Tumor Site: Type of Lesion: LUNG: ADENOMA, ADENOCARCINOMA): active; positive | carcinogen call (Species: MOUSE, Strain/Sex: SWISS/MALE, Route: ORAL, Dose: 0.03125% IN DRINKING WATER FOR LIFE, Tumor Site: Type of Lesion: LUNG: ADENOMA, ADENOCARCINOMA, FORESTOMACH: SQUAMOUS CELL PAPILLOMA, CARCINOMA): active; positive

O=[N+]([O-])c1ccc2ccc3c([N+](=O)[O-])ccc4ccc1c2c43
carcinogen call (Species: HAMSTER, Strain/Sex: SYRIAN/FEMALE, Route: INTRATRACHEAL, Dose: 0, 0.5 MG IN 0.2 ML OF SALINE 1/WK FOR 26 WK (STUDY DURATION: 48 WK), Tumor Site: Type of Lesion: LUNG: ADENOCARCINOMA, HEMATOPOIETIC SYSTEM: LEUKEMIA): active; positive | carcinogen call (Species: HAMSTER, Strain/Sex: SYRIAN/MALE, Route: INTRAPERITONEAL, Dose: 0, 0.5 MG IN 0.2 ML OF SALINE 1/WK FOR 26 WK (STUDY DURATION: 48 WK), Tumor Site: Type of Lesion: LUNG: ADENOCARCINOMA, HEMATOPOIETIC SYSTEM: LEUKEMIA): active; positive | carcinogen call (Species: MOUSE, Strain/Sex: BALB/MALE, Route: SUBCUTANEOUS, Dose: 0, 0.1 MG IN DMSO 1/WK FOR 20 WK (STUDY DURATION: 60 WK), Tumor Site: Type of Lesion: INJECTION SITE: TUMOR): active; positive | carcinogen call (Species: RAT, Strain/Sex: F344/MALE, Route: SUBCUTANEOUS, Dose: 0, 0.2 MG 2/WK FOR 10 WK (STUDY DURATION: 320 D), Tumor Site: Type of Lesion: INJECTION SITE: SARCOMA): active; positive | carcinogen call (Species: RAT, Strain/Sex: F344/NS1C/MALE, Route: PULMONARY IMPLANT, Dose: 0, 0.003, 0.01, 0.03, 0.1, 0.15 MG AS A SUSPENSION IN EQUAL VOL OF BEESWAX AND TRICAPRYLIN IMPLANTED IN LEFT LUNG (STUDY, Dose: 0, 0.003, 0.01, 0.03, 0.1, 0.15 MG AS A SUSPENSION IN EQUAL VOL OF BEESWAX AND TRICAPRYLIN IMPLANTED IN LEFT LUNG (STUDY, Tumor Site: Type of Lesion: LUNG: TUMOR): active; positive | carcinogen call (Species: RAT, Strain/Sex: STRAIN CD/FEMALE, Route: INTRAGASTRIC, Dose: 0, 10 UMOL IN DMSO 3/WK FOR 4 WK (TOTAL DOSE: 16 UMOL/RAT) (STUDY DURATION: 78 WK), Tumor Site: Type of Lesion: PITUITARY GLAND: CARCINOMA): active; positive | carcinogen call (Species: RAT, Strain/Sex: STRAIN CD/FEMALE, Route: INTRAPERITONEAL, Dose: 0, 10 UMOL IN DMSO 3/WK FOR 4 WK (TOTAL DOSE; 16 UMOL/RAT) (STUDY DURATION; 78 WK), Dose: 0, 10 UMOL IN DMSO 3/WK FOR 4 WK (TOTAL DOSE; 16 UMOL/RAT) (STUDY DURATION; 78 WK), Tumor Site: Type of Lesion: HEMATOPOIETIC SYSTEM: HISTIOCYTOMA): active; positive | carcinogen call (Species: RAT, Strain/Sex: STRAIN-CD/FEMALE, Route: SUBCUTANEOUS, Dose: 0, 6.3 UMOL (TOTAL DOSE) ADMINISTERED OVER 8 WK BEGINNING ON DAY OF BIRTH (STUDY DURATION: 67 WK), Tumor Site: Type of Lesion: INTEGUMENTARY SYSTEM: MALIGNANT FIBROUS HISTIOCYTOMA, HEMATOPOIETIC SYSTEM: LEUKEMIA): active; positive

C[C@]12C=CC(=O)C=C1CC[C@@H]1[C@@H]2[C@@H](O)C[C@@]2(C)[C@H]1CC[C@]2(O)C(=O)CO
carcinogen call (Species: RAT, Strain/Sex: SPRAGUE-DAWLEY/FEMALE, Route: GAVAGE, Dose: 0, 3 MG/KG ADMINISTERED 1, 2, 4.5 OR 9 TIMES PER MO FOR 18 MO TO GIVE MEDIAN TOTAL DOSES OF 54, 108, 234, 468 MG/KG (STU, Dose: 0, 3 MG/KG ADMINISTERED 1, 2, 4.5 OR 9 TIMES PER MO FOR 18 MO TO GIVE MEDIAN TOTAL DOSES OF 54, 108, 234, 468 MG/KG (STU): inactive; negative | carcinogen call (Species: RAT, Strain/Sex: SPRAGUE-DAWLEY/MALE, Route: ORAL, Dose: 0, 40 UG/ML IN DRINKING WATER FOR AN AVERAGE DAILY DOSE OF 368 UG/KG FOR 104 WK (STUDY DURATION: 104 WK), Tumor Site: Type of Lesion: LIVER: HEPATOCELLULAR ADENOMA OR CARCINOMA): active; positive

CC1=C(C(=O)OCCN(Cc2ccccc2)c2ccccc2)C(c2cccc([N+](=O)[O-])c2)C(P2(=O)OCC(C)(C)CO2)=C(C)N1 (stereo unspecified)
carcinogen call (Species: MOUSE, Strain/Sex: B6C3F1/FEMALE, Route: ORAL, Dose: 0, 500, 1600, 5000 PPM IN FEED FOR 104 WK (STUDY DURATION: 104 WK), Dose: 0, 500, 1600, 5000 PPM IN FEED FOR 104 WK (STUDY DURATION: 104 WK)): inactive; negative | carcinogen call (Species: MOUSE, Strain/Sex: B6C3F1/MALE, Route: ORAL, Dose: 0, 500, 1600, 5000 PPM IN FEED FOR 104 WK (STUDY DURATION: 104 WK), Dose: 0, 500, 1600, 5000 PPM IN FEED FOR 104 WK (STUDY DURATION: 104 WK)): inactive; negative | carcinogen call (Species: RAT, Strain/Sex: F344/FEMALE, Route: ORAL, Dose: 0, 400, 1200, 3600 PPM IN FEED FOR 104 WK (STUDY DURATION: 104 WK), Dose: 0, 400, 1200, 3600 PPM IN FEED FOR 104 WK (STUDY DURATION: 104 WK)): inactive; negative | carcinogen call (Species: RAT, Strain/Sex: F344/MALE, Route: ORAL, Dose: 0, 400, 1200, 3600 PPM IN FEED FOR 104 WK (STUDY DURATION: 104 WK), Dose: 0, 400, 1200, 3600 PPM IN FEED FOR 104 WK (STUDY DURATION: 104 WK)): inactive; negative

CCC(CC)[N+](=O)[O-]
carcinogen call (Species: RAT, Strain/Sex: F344/MALE, Route: GAVAGE, Dose: 0, 2 MMOL/KG BW 1/WK FOR 12 WK THEN 1 MMOL/KG FOR 38 WK (STUDY DURATION: 83 WK), Tumor Site: Type of Lesion: LIVER: CARCINOMA): active; positive

Cc1cc(Cc2ccc(N)c(C)c2)ccc1N
carcinogen call (Species: RAT, Route: ORAL, Tumor Site: Type of Lesion: LIVER): active; positive

ClCc1ccccn1
carcinogen call (Species: MOUSE, Strain/Sex: B6C3F1/FEMALE, Route: GAVAGE, Dose: 0, 125, 250 MG/KG IN AQ SOLN, Dose: 0, 125, 250 MG/KG IN AQ SOLN): inactive; negative | carcinogen call (Species: MOUSE, Strain/Sex: B6C3F1/MALE, Route: GAVAGE, Dose: 0, 125, 250 MG/KG IN AQ SOLN, Dose: 0, 125, 250 MG/KG IN AQ SOLN): inactive; negative | carcinogen call (Species: RAT, Strain/Sex: F344/FEMALE, Route: GAVAGE, Dose: 0, 75, 150 MG/KG IN AQ SOLN, Dose: 0, 75, 150 MG/KG IN AQ SOLN): inactive; negative | carcinogen call (Species: RAT, Strain/Sex: F344/MALE, Route: GAVAGE, Dose: 0, 75, 150 MG/KG IN AQ SOLN, Dose: 0, 75, 150 MG/KG IN AQ SOLN): inactive; negative

— PubChem BioAssay AID1259411 (Chemical Carcinogenesis Research Information System (CCRIS), 2018)
